Measured values reported in the supplement of paper PMC10307832.

Compound: CC(=O)c1c(C)c2cnc(Nc3ccc(N4CCNCC4)cn3)nc2n(C2CCCC2)c1=O [Palbociclib] + C[C@]1(O)C[C@@H](c2nc(-c3ccc4ccc(-c5ccccc5)nc4c3)c3c(N)nccn32)C1 [Linsitinib] (partner 1 µM)
Test: relative viability (nuclei count vs DMSO), 5 days (fraction); higher = more cells survive
Method in brief: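 Lung cancer cell lines in 1536-well plates got either a single drug or a fixed anchor-drug dose together with five library-drug doses (not always all listed) in √10 steps, by pin tool, on the day after seeding. Nuclei were counted after 5 days, and relative viability is the treated-to-vehicle ratio of nuclei counts. Values are medians of duplicate plates.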

| Cell Line | relative viability (first compound 0.01 µM) | relative viability (first compound 0.03162 µM) | relative viability (first compound 0.1 µM) | relative viability (first compound 0.3162 µM) | relative viability (first compound 1 µM) |
| --- | --- | --- | --- | --- | --- |
| 201T | 1.01 | 0.97 | 0.901 | 0.938 | 0.716 |
| A549 | 0.619 | 0.38 | 0.316 | 0.457 | 0.274 |
| A-427 | 1.15 | 1.08 | 1.01 | 0.942 | 0.806 |
| ABC-1 | 1.06 | 0.925 | 0.666 | 0.583 | 0.382 |
| BEN | 1.14 | 0.759 | 0.618 | 0.747 | 0.497 |
| CAL-12T | 0.9 | 0.699 | 0.768 | 0.679 | 0.56 |
| COR-L23 | 0.9 | 0.844 | 0.637 | 0.552 | 0.344 |
| COR-L 105 | 0.987 | 0.91 | 0.509 | 0.571 | 0.429 |
| Calu-6 | 0.982 | 0.921 | 0.784 | 0.746 | 0.578 |
| EBC-1 | 0.923 | 0.843 | 0.647 | 0.554 | 0.293 |
| EKVX | 1.01 | 0.786 | 0.722 | 0.781 | 0.492 |
| EMC-BAC-2 | 0.815 | 0.709 | 0.712 | 0.651 | 0.594 |
| EPLC-272H | 1.15 |  | 0.988 | 0.999 | 0.716 |
| H3255 | 1.16 | 0.873 | 0.844 | 0.775 | 0.514 |
| HARA | 1.02 | 0.78 | 0.83 | 0.454 | 0.361 |
| HCC-15 | 0.966 |  | 0.832 | 0.755 | 0.726 |
| HCC-44 | 0.661 | 0.648 | 0.691 | 0.679 | 0.661 |
| HCC-78 | 0.46 | 0.329 | 0.302 | 0.39 | 0.273 |
| HCC-366 | 0.482 |  | 0.506 | 0.494 | 0.344 |
| HCC-827 | 0.945 | 0.879 | 0.88 | 0.885 | 0.71 |
| HOP-62 | 0.995 |  | 1.01 | 0.908 | 0.692 |
| IA-LM | 0.492 | 0.399 | 0.395 | 0.221 | 0.118 |
| LC-2-ad | 0.884 |  | 0.735 | 0.611 | 0.395 |
| LCLC-97TM1 | 0.185 |  | 0.167 | 0.165 | 0.158 |
| LCLC-103H | 1.04 | 1.15 | 0.918 | 1 | 0.826 |

| Cell Line | relative viability (first compound 0.01 µM) | relative viability (first compound 0.03162 µM) | relative viability (first compound 0.1 µM) | relative viability (first compound 0.3162 µM) | relative viability (first compound 1 µM) |
| --- | --- | --- | --- | --- | --- |
| LK-2 | 0.521 | 0.486 | 0.468 | 0.434 | 0.608 |
| LOU-NH91 | 1.02 | 0.79 | 0.668 | 0.6 | 0.605 |
| LU99A | 0.587 | 0.46 | 0.454 | 0.355 | 0.327 |
| LXF-289 | 0.914 | 0.959 | 0.99 | 0.88 | 0.734 |
| NCI-H23 | 0.794 |  | 0.509 | 0.46 | 0.398 |
| NCI-H322M | 0.892 | 0.836 | 0.718 | 0.78 | 0.638 |
| NCI-H358 | 0.673 | 0.559 | 0.354 | 0.247 | 0.229 |
| NCI-H441 | 0.652 | 0.383 | 0.483 | 0.487 | 0.275 |
| NCI-H460 | 0.903 | 0.529 | 0.483 | 0.288 | 0.117 |
| NCI-H520 | 1.06 | 0.721 | 0.661 | 0.67 | 0.392 |
| NCI-H596 | 1.12 | 0.914 | 0.95 | 1.02 | 1.03 |
| NCI-H647 | 1.2 | 1.01 | 0.89 | 0.941 | 0.712 |
| NCI-H650 | 0.866 |  | 0.646 | 0.635 | 0.436 |
| NCI-H661 | 0.547 | 0.529 | 0.46 | 0.421 | 0.351 |
| NCI-H727 | 0.226 | 0.285 | 0.283 | 0.289 | 0.282 |
| NCI-H838 | 1.07 | 0.96 | 0.708 | 0.82 | 0.494 |
| NCI-H1299 | 0.961 | 0.983 | 0.908 | 0.866 | 0.685 |
| NCI-H1355 | 0.807 |  | 0.754 | 0.687 | 0.549 |
| NCI-H1395 | 1.35 | 0.968 | 0.737 | 0.887 | 0.726 |
| NCI-H1437 | 1.02 | 1.02 | 0.872 | 0.847 | 0.408 |
| NCI-H1563 | 1.19 | 1.25 | 1.15 | 1 | 0.887 |
| NCI-H1651 | 0.972 | 0.913 | 1.01 | 0.933 | 0.698 |
| NCI-H1666 | 0.868 | 0.751 | 0.634 | 0.619 | 0.37 |
| NCI-H1703 | 1.11 | 0.64 | 0.673 | 0.617 | 0.323 |
| NCI-H1734 | 0.918 | 0.765 | 0.789 | 0.641 | 0.564 |

| Cell Line | relative viability (first compound 0.01 µM) | relative viability (first compound 0.03162 µM) | relative viability (first compound 0.1 µM) | relative viability (first compound 0.3162 µM) | relative viability (first compound 1 µM) |
| --- | --- | --- | --- | --- | --- |
| NCI-H1755 | 1.01 | 0.987 | 0.873 | 0.814 | 0.711 |
| NCI-H1792 | 0.52 | 0.435 | 0.397 | 0.371 | 0.25 |
| NCI-H1793 | 0.722 | 0.681 | 0.647 | 0.583 | 0.518 |
| NCI-H1915 | 1.11 | 1.04 | 1.07 | 1.01 | 0.947 |
| NCI-H1944 | 1.15 | 0.993 | 1.06 | 1.08 | 0.836 |
| NCI-H1975 | 0.956 | 0.864 | 0.886 | 0.766 | 0.716 |
| NCI-H1993 | 0.706 | 0.722 | 0.648 | 0.693 | 0.676 |
| NCI-H2009 | 1.18 | 1.02 | 0.957 | 0.909 | 0.494 |
| NCI-H2023 | 0.658 | 0.597 | 0.57 | 0.472 | 0.316 |
| NCI-H2085 | 1.01 | 0.785 | 0.77 | 0.662 | 0.571 |
| NCI-H2087 | 0.932 | 0.837 | 0.826 | 0.503 | 0.541 |
| NCI-H2126 | 0.736 | 0.706 | 0.693 | 0.598 | 0.428 |
| NCI-H2228 | 0.51 | 0.573 | 0.674 | 0.598 | 0.83 |
| NCI-H2347 | 1.04 | 0.868 | 0.597 | 0.723 | 0.595 |
| NCI-H2405 | 0.992 |  | 0.49 | 0.808 | 0.54 |
| NCI-H3122 | 0.925 | 1.02 | 0.943 | 0.809 | 0.63 |
| PC-3 [JPC-3] | 0.981 | 0.888 | 0.878 | 0.787 | 0.613 |
| PC-14 | 1.04 | 0.847 | 0.869 | 0.802 | 0.689 |
| RERF-LC-KJ | 0.954 | 0.887 | 0.919 | 1.04 | 0.958 |
| SK-LU-1 | 0.975 | 1.06 | 0.777 | 0.771 | 0.627 |
| SK-MES-1 | 1.01 | 1 | 0.791 | 0.772 | 0.609 |
| SW 1573 | 0.69 | 0.733 | 0.639 | 0.669 | 0.5 |
| UMC-11 | 1.02 | 0.894 | 0.888 | 0.536 | 0.326 |
